The values that follow come from US6503935B1, “Imidazoles and related compounds as α1A agonists” (Abbott Laboratories, priority 1998, dated 2003).

pKi: −log10 of the molar value. Where a name gives a salt, the structure may show the parent alone. Read-outs that look alike come from different tables or passages of the source. Where only a bound is given, the exact number is not on record here.

The target of data set [1] is T1, α1A (rat submaxillary gland) (Rattus norvegicus, UniProt P43140).
T1 construct: α1A (rat submaxillary gland); from tissue; host or cells: rat submaxillary gland
T1 sequence (P43140 1-466): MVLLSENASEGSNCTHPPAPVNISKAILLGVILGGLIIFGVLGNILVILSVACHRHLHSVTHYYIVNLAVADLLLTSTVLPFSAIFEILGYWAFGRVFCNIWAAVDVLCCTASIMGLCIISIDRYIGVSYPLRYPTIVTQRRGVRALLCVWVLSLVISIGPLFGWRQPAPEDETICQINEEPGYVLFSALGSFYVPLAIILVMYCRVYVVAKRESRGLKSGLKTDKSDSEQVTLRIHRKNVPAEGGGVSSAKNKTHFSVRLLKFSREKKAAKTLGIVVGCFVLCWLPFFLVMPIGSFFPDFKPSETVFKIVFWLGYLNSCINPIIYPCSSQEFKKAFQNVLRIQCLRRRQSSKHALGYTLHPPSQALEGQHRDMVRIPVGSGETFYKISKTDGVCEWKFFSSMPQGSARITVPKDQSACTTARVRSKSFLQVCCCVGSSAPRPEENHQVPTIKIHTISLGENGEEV
Briefly: Radioligand binding with [3H]-prazosin, α1A. The method, boiled down:
(§1)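 Radioligand binding with [3H]-prazosin: α1A from rat submaxillary gland; α1b hamster receptor and α1d rat receptor, each expressed in mouse fibroblasts.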

The target in data set [2] is T2, α1b (hamster receptor expressed in mouse fibroblasts) (Mesocricetus auratus, UniProt P18841).
T2 construct: expressed in transfected cells; host or cells: mouse fibroblasts
T2 sequence (P18841 1-515): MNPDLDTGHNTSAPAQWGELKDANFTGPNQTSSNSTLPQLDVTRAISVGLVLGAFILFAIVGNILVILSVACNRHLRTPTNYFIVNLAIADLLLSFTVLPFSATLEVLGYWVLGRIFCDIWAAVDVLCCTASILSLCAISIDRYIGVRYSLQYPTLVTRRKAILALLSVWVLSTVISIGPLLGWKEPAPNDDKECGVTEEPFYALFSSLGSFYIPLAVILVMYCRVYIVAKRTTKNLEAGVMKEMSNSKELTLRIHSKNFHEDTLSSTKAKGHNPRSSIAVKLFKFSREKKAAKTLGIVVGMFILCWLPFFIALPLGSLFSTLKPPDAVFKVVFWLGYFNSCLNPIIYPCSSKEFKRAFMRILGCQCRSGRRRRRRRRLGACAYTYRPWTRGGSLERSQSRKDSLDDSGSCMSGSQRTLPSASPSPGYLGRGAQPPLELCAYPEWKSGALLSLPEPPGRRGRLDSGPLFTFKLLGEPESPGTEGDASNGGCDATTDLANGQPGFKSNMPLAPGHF
Briefly: Radioligand binding with [3H]-prazosin, α1b. The following applies: read-out: Radioligand Binding Ki α1b (Hamster). The method, boiled down: as §1

Data set [3] concerns the target T3, α1d (rat receptor expressed in mouse fibroblasts) (Rattus norvegicus, UniProt P23944).
T3 construct: expressed in transfected cells; host or cells: mouse fibroblasts
T3 sequence (P23944 1-561): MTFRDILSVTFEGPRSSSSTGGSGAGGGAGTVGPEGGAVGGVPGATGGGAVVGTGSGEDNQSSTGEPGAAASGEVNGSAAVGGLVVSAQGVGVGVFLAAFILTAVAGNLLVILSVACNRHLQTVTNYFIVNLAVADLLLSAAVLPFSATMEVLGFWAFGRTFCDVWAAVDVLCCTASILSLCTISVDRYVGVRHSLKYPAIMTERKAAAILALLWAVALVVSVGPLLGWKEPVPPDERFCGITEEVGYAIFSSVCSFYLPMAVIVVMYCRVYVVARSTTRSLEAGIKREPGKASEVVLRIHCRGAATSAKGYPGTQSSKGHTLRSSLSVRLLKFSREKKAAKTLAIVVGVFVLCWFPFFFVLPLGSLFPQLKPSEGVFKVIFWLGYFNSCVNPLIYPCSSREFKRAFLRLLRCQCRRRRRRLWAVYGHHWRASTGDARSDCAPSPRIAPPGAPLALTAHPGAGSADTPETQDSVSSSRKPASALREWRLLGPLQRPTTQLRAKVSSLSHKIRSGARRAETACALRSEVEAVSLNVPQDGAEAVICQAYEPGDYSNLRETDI
Nature of the data set: Radioligand binding with [3H]-prazosin, α1d. Conditions: read-out: Radioligand Binding Ki α1d (Rat). The procedure, abridged: as §1

Data set [4] deals with T4, α1A (rat epididymal vas deferens) (Rattus norvegicus, UniProt P43140).
T4 sequence (P43140 1-466): T1 sequence (P43140 1-466)
Nature of the data set: cell-based. Conditions: rat epididymal vas deferens (values marked *); read-out: Agonist Tissue Response (pD2) α1A, test performed using rat epididymal vas deferens (converted).

A further data set has as its target T5, α1B (rat spleen) (Rattus norvegicus, UniProt P15823).
T5 construct: α1B (rat spleen) and α1D (rat aorta) receptors; from tissue; host or cells: rat spleen
T5 sequence (P15823 1-515): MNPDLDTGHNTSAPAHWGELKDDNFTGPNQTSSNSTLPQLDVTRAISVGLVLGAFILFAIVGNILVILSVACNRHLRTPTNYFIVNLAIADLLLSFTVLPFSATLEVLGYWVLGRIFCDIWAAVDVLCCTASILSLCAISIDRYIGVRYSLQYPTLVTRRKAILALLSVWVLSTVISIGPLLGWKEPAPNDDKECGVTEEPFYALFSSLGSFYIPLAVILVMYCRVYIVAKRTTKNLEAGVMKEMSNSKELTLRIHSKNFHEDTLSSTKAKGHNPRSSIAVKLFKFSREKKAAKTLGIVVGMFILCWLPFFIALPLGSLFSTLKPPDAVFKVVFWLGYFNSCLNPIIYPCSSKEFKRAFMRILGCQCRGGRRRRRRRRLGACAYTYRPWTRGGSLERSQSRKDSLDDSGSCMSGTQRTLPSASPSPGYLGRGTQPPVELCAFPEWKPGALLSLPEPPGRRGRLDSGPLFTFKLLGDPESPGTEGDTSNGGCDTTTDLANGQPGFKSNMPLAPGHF
Nature of the data set: Agonist contraction of smooth muscle tissue, rat spleen. The data set is classed as cell-based. The following applies: read-out: Agonist Tissue Response (pD2) α1B (rat spleen) (converted).

A further data set has as its target T6, α1D (rat aorta) (Rattus norvegicus, UniProt P23944).
T6 construct: α1B (rat spleen) and α1D (rat aorta) receptors; from tissue; host or cells: rat aorta strips, endothelium removed
T6 sequence (P23944 1-561): T3 sequence (P23944 1-561)
Briefly: Agonist contraction of smooth muscle tissue, rat aorta. The format is cell-based. Conditions: read-out: Agonist Tissue Response (pD2) α1D (rat aorta) (converted).

Data set [5] has as its system Anesthetized Dogs. Briefly: Mean arterial pressure (MAP) in anesthetized dogs. The data set is classed as in vivo, dog. Conditions: iv dose causing a maximum increase in MAP of 20 mm Hg, anesthetized female dogs. An excerpt:
In vivo Functional Assays-Assessment of Intrurethral Pressure (IUP) and Mean Arterial Pressure (MAP) in Anesthetized Dogs
Female dogs (Marshall Farms, North Rose, N.Y.) greater that 2 years of age and weighing between 12 and 15 kg were used in these studies. At least 2 weeks prior to any agonist dosing, dogs were instrumented for the chronic measurement of arterial blood pressure by implanting a telemetry transducer/transmitter (TA11PA-C40, Data Sciences International, St. Paul, Minn.) into a carotid artery.
On the test day, dogs fasted since the previous afternoon were pre-anesthetized with thiopental sodium 15 mg/kg i.v. (Pentothal™, Abbott) and intubated. Anesthesia was maintained by allowing the dog to spontaneously breathe a mixture of isoflurane (2.5 to 3 volume %) and oxygen delivered by a Narkomed Standard anesthesia system (North American Drager, Telford, Pa.). An Abbocath-T™ i.v. catheter (18-G, Abbott) was inserted into the cephalic vein for the administration of agonists. A telemetry receiver (RA1310, DataSciences) was placed under the head of each dog and was interfaced to a computerized data acquisition system (Modular Instruments Inc.(MI2), Malvern, Pa.) which allowed for the continuous calibrated recording of arterial blood pressure which was electronically filtered to determine its mean value (MAP).
Dogs with chronic telemetry implants anesthetized as described above were placed in dorsal recumbency and a balloon catheter was inserted into the urethral orifice and advanced approximately 15 cm until the tip was well inside the bladder. The balloon was then inflated with 1 ml of room air and the catheter slowly withdrawn until resistance (corresponding to the bladder neck) was evident. The balloon was then deflated and the catheter withdrawn an additional 2 cm. The balloon was then reinflated and its catheter port connected to a Gould Statham P23Dd pressure transducer interfaced to a computerized data acquisition system (Modular Instruments, Inc., Malvern, Pa.) for the measurement of intraurethral pressure. Increasing iv doses of test agonists were administered and the maximum effect of each dose on IUP was recorded. The effect of each dose was allowed to return to baseline before the next dose was given.
From the resulting dose response curve, an ED5 value, for the dose causing a maximum increase in IUP of 5 mm Hg, could be estimated. An ED20 value for the dose causing a maximum increase in MAP of 20 mm Hg could also be estimated. A selectivity ratio of MAP ED20 vs. IUP ED5 was calculated.

Data set [6] relates to Anesthetized Dogs. Briefly: Urethral pressure profile in anesthetized dogs. The data set is classed as in vivo, dog. Conditions: increasing iv doses, FIG. 1. An excerpt: Assessment of Urethral Pressure Profile in Anesthetized Dogs
Dogs instrumented and anesthetized as decribed above were placed in left lateral recumbency and a dual pressure sensor catheter (SPC-771, Millar Instruments, Houston, Tex.) was inserted into the urethra and advanced into the bladder. The proximal pressure sensor was interfaced to a MI2 computerized data acquisition system for the measurement of lower urinary tract pressures. At a resting intravesical pressure of approximately 5 cm of H2O, urethral pressure was measured from the sensor as the catheter was withdrawn using a modified syringe pump (Model 22, Harvard Apparatus, South Natick, Mass.) at its maximal rate of 0.83 mm/sec. Measurement from the proximal sensor allowed easy reinsertion as the distal 5 cm of the catheter remains in the urethra after the total profile has been obtained. Three resting urethral pressure profiles were obtained at 5 minute intervals before dosing, then a single profile was initiated 30 sec after each increasing iv dose during the time corresponding to the maximum arterial pressure effects of that dose. The increase in arterial pressure seen after each agonist dose was allowed to return to baseline before the next dose was given.

Data set [7] deals with Anesthetized Dogs. Nature of the data set: Intraurethral pressure (IUP) in anesthetized dogs. The data set is classed as in vivo, dog. The following applies: Canis lupus familiaris; iv dose causing a maximum increase in IUP of 5 mm Hg, anesthetized female dogs; read-out: Mean IUP ED5.

What is called pKi is −log10 of the Ki, conventionally taken in molar units. Take `COc1ccc2c(c1NS(C)(=O)=O)CCCC2c1c[nH]cn1` (stereo not drawn) [Example 1, N-[5-(1H-imidazol-4-yl)-2-methoxy-5,6,7,8-tetrahydro-1-naphthalenyl]methanesulfonamide, hydrochloride]: the pKi in [1] is 6.30; in data set [2] it was 5.77; in data set [3], 6.32. Moreover, the EC50 was over 1000 µM in data set [4], 955 µM at α1B (rat spleen) and 5.5 µM on α1D (rat aorta).
`CS(=O)(=O)Nc1c(O)ccc2c1CCCC2c1c[nH]cn1` (stereo not drawn) [Example 2, N-[2-hydroxy-5-(1H-imidazol-4-yl)-5,6,7,8-tetrahydro-1-naphthalenyl]methanesulfonamide, hydrochloride]: the pKi was 7.44 in [1], 5.60 in data set [2] and 5.90 in data set [3]. For the same compound, the figures for the EC50 (in data set [4]; on α1D (rat aorta)) were 0.017 µM and 1.91 µM, respectively.
Regarding `Cc1nc(C2CCCc3c2ccc(O)c3NS(C)(=O)=O)c[nH]1` (stereo not drawn) [Example 3, N-[2-hydroxy-5-(2-methyl-1H-imidazol-4-yl)-5,6,7,8-tetrahydro-1-naphthalenyl]methanesulfonamide, hydrochloride], the pKi in data set [1] (rat submaxillary gland, [3H]-prazosin) was 6.00; in data set [2] (hamster receptor expressed in mouse fibroblasts, [3H]-prazosin) it was 4.30; in data set [3] (rat receptor expressed in mouse fibroblasts, [3H]-prazosin) it was 5.08. Further, the EC50 in data set [4] was 1.95 µM; on α1B (rat spleen) (rat spleen), 12.9 µM; on α1D (rat aorta) (rat aorta, endothelium removed), 28.2 µM.
For the compound `Cn1cncc1C1CCCc2c1ccc(O)c2NS(C)(=O)=O` (stereo not drawn) [Example 4, N-[2-hydroxy-5-(1-methyl-1H-imidazol-5-yl)-5,6,7,8-tetrahydro-1-naphthalenyl]methanesulfonamide, hydrochloride], the values for the negative logarithm of the Ki (pKi) in data set [1], in [2] and in data set [3] were 4.61, 4.50 and 4.50, respectively. In addition, the EC50 was 309 µM in data set [4], over 1000 µM at α1B (rat spleen) and 95.5 µM on α1D (rat aorta).
Usually melting point stands for the temperature of the solid-liquid transition. For the compound `CCn1cnc(C2CCCc3c2ccc(O)c3NS(C)(=O)=O)c1.Cl` (stereo not drawn) [Example 6, N-[5-(1-ethyl-1H-imidazol-4-yl)-2-hydroxy-5,6,7,8-tetrahydro-1-naphthalenyl]methanesulfonamide, hydrochloride], the melting point is 230 to 234 °C (dec.). This compound showed a pKi in data set [1] of 5.68. In [3], the pKi was 4.78.
On to `CCCn1cnc(C2CCCc3c2ccc(O)c3NS(C)(=O)=O)c1` (stereo not drawn) [Example 7, N-[2-hydroxy-5-(1-propyl-1H-imidazol-4-yl)-5,6,7,8-tetrahydro-1-naphthalenyl]methanesulfonamide, hydrochloride], for which the pKi in data set [1] is 6.18; in [3] it was 5.42. Further, the EC50 (in data set [4]; at α1B (rat spleen)) was over 1000 µM throughout.
On to `CS(=O)(=O)Nc1cccc2c1CCCC2c1c[nH]cn1.Cl` (stereo not drawn) [Example 8, N-[5-(1H-imidazol-4-yl)-5,6,7,8-tetrahydro-1-naphthalenyl]methanesulfonamide, hydrochloride], for which the “Mean MAP ED20” value with Anesthetized Dogs [5] was 102 nmol/kg. For the same compound, in the data set with Anesthetized Dogs [6], the urethral pressure profile entry is “corresponding increases in the urethral pressure”. Moreover, the ED (5 mmHg IUP increase) in the data set with Anesthetized Dogs [7] came out at 0.0255 µmol/kg.
